Reference: patent publication US20070014723A1, “Methods and compositions for 10Beryllium complex probes” (priority 2005, published 2007)
Marks after values point to notes of the source that are not given here.

Columns and labels:
Type in all cases: cell-based, human
[1] = system: BAL macrophages from CBD subjects; assay: Apoptosis (nuclear fragmentation) of CBD BAL macrophages; conditions: 100 μM BeSO4, 50 μg Be-ferritin adduct containing 270 picomoles of Be, or ferritin alone, mean±SEM
Method: FIG. 1. illustrates an exemplary histogram of (a) TUNEL (assay for DNA strand break) positive nuclear staining of CBD BAL macrophages after exposure to 100 μM BeSO4 and (b) nuclear fragmentation in CBD BAL macrophages exposed to Be-ferritin containing 270 picomoles of Be. (c) The percent (mean %±SEM) of CBD BAL cells (n=8) with TUNEL positive nuclei (black) or with fragmented nuclei (open) after exposure to 100 μM BeSO4. *p<0.05 versus the corresponding unstimulated control.
Cell Cultivation: Bronchoalveolar lavage (BAL) was performed as previously described. […] BAL macrophages and T cells were separated by an adherence method known in the art.

[2] = system: BAL lymphocytes from CBD and BeS subjects; assay: Apoptosis of BAL lymphocytes
[3] = system: BAL cells (Be-specific BAL T cells); assay: Beryllium lymphocyte proliferation test (BeLPT), BAL cells; conditions: for Peak CBD BAL cell BeLPT stimulation index, median (minimum, maximum): CBD BAL cells, n = 4, 10^-10 M Be-ferritin, 10^-4 M BeSO4, 10^-4 M Al2(SO4)3, ferritin

In the case of `O=S(=O)([O-])[O-].[Be+2]` [BeSO4, Beryllium sulfate], the “BAL macrophages with apoptotic fragmented nuclei” value [1] is reported as 50%±6%, the “Induction of apoptosis of BAL lymphocytes” value [2] is reported as “did not induce” and the “BAL BeLPT SI, median (minimum, maximum)” value ([3]; BeS subjects, peak SI after BeSO4 stimulation) is reported as 1.9 (1.2, 46). For the same compound, the “Peak CBD BAL cell BeLPT stimulation index, median (minimum, maximum)” value [3] was 18.5 (3.7, 124)**.
With ferritin the “BAL macrophages with apoptotic fragmented nuclei” value [1] was < 3% and the “Peak CBD BAL cell BeLPT stimulation index, median (minimum, maximum)” value [3] was 1.1 (0.8, 1.3).
